Data from PubChem BioAssay AID1259407 (Chemical Carcinogenesis Research Information System (CCRIS), 2018).
“Also recorded” adds a separate entry of the source. Active and inactive are the calls of the source. How the calls were made is not given here.

System: CCRIS mutagenicity, Ames/micronucleus/aberration tests
Experiment: CCRIS mutagenicity studies

CC/C(=C(/CC)c1ccc(O)cc1)c1ccc(O)cc1
mutagenic call (End Point: IN VITRO CHROMOSOMAL ABERRATIONS, Test System: CHINESE HAMSTER CELL DON (22;XY), Metabolic Activation: NONE): active; positive (ploidy changes)
mutagenic call (End Point: IN VITRO CHROMOSOMAL ABERRATIONS, Test System: HUMAN LYMPHOCYTES, Metabolic Activation: NONE, Method: FISH): active; positive (ploidy changes in chromosomes 1, 9, 16); also recorded: active; positive (ploidy changes in chromosomes 7 and 9)
mutagenic call (End Point: IN VITRO CHROMOSOMAL ABERRATIONS, Test System: HUMAN PERIPHERAL LYMPHOCYTES, Metabolic Activation: NONE): inactive; negative
mutagenic call (End Point: IN VITRO CHROMOSOMAL ABERRATIONS, Test System: SYRIAN HAMSTER EMBRYO (SHE) CELLS, Metabolic Activation: NONE): active; positive (ploidy changes)
mutagenic call (End Point: IN VITRO MICRONUCLEUS, Test System: HUMAN PERIPHERAL LYMPHOCYTES, Metabolic Activation: NONE): active; positive
mutagenic call (End Point: IN VITRO MICRONUCLEUS, Test System: V79 CELLS, Metabolic Activation: NONE): active; positive
mutagenic call (Test System: AMES SALMONELLA TYPHIMURIUM, Strain/Indicator: TA97, Metabolic Activation: HAMSTER LIVER S-9, AROCLOR 1254 (10%), Method: PREINCUBATION): inactive; negative
mutagenic call (Test System: AMES SALMONELLA TYPHIMURIUM, Strain/Indicator: TA97, Metabolic Activation: HAMSTER LIVER S-9, AROCLOR 1254 (30%), Method: PREINCUBATION): inactive; negative
mutagenic call (Test System: AMES SALMONELLA TYPHIMURIUM, Strain/Indicator: TA97, Metabolic Activation: NONE, Method: PREINCUBATION): inactive; negative
mutagenic call (Test System: AMES SALMONELLA TYPHIMURIUM, Strain/Indicator: TA97, Metabolic Activation: NONE, Method: STANDARD PLATE): inactive; negative
mutagenic call (Test System: AMES SALMONELLA TYPHIMURIUM, Strain/Indicator: TA97, Metabolic Activation: RAT LIVER S-9, AROCLOR 1254 (10%), Method: PREINCUBATION): inactive; negative
mutagenic call (Test System: AMES SALMONELLA TYPHIMURIUM, Strain/Indicator: TA97, Metabolic Activation: RAT LIVER S-9, AROCLOR 1254 (30%), Method: PREINCUBATION): inactive; negative
mutagenic call (Test System: AMES SALMONELLA TYPHIMURIUM, Strain/Indicator: TA97, Metabolic Activation: RAT, LIVER, S-9, AROCLOR 1254, Method: STANDARD PLATE): inactive; negative
mutagenic call (Test System: AMES SALMONELLA TYPHIMURIUM, Strain/Indicator: TA97, Metabolic Activation: S-9, Method: STANDARD PLATE): inactive; negative
mutagenic call (Test System: AMES SALMONELLA TYPHIMURIUM, Strain/Indicator: TA98, Metabolic Activation: HAMSTER LIVER S-9, AROCLOR 1254 (10%), Method: PREINCUBATION): inactive; negative
mutagenic call (Test System: AMES SALMONELLA TYPHIMURIUM, Strain/Indicator: TA98, Metabolic Activation: HAMSTER LIVER S-9, AROCLOR 1254 (30%), Method: PREINCUBATION): inactive; negative
mutagenic call (Test System: AMES SALMONELLA TYPHIMURIUM, Strain/Indicator: TA98, Metabolic Activation: NONE, Method: PREINCUBATION): inactive; negative
mutagenic call (Test System: AMES SALMONELLA TYPHIMURIUM, Strain/Indicator: TA98, Metabolic Activation: RAT LIVER S-9, AROCLOR 1254 (10%), Method: PREINCUBATION): inactive; negative
mutagenic call (Test System: AMES SALMONELLA TYPHIMURIUM, Strain/Indicator: TA98, Metabolic Activation: RAT LIVER S-9, AROCLOR 1254 (30%), Method: PREINCUBATION): inactive; negative
mutagenic call (Test System: AMES SALMONELLA TYPHIMURIUM, Strain/Indicator: TA98, Metabolic Activation: RAT, LIVER, S-9, AROCLOR 1254, Method: STANDARD PLATE): inactive; negative
mutagenic call (Test System: AMES SALMONELLA TYPHIMURIUM, Strain/Indicator: TA98, Metabolic Activation: RAT, LIVER, S-9, Method: STANDARD PLATE): inactive; negative
mutagenic call (Test System: AMES SALMONELLA TYPHIMURIUM, Strain/Indicator: TA98, Metabolic Activation: S-9, Method: STANDARD PLATE): inactive; negative
mutagenic call (Test System: AMES SALMONELLA TYPHIMURIUM, Strain/Indicator: TA100, Metabolic Activation: HAMSTER LIVER S-9, AROCLOR 1254 (10%), Method: PREINCUBATION): inactive; negative
mutagenic call (Test System: AMES SALMONELLA TYPHIMURIUM, Strain/Indicator: TA100, Metabolic Activation: HAMSTER LIVER S-9, AROCLOR 1254 (30%), Method: PREINCUBATION): inactive; negative
mutagenic call (Test System: AMES SALMONELLA TYPHIMURIUM, Strain/Indicator: TA100, Metabolic Activation: NONE, Method: PREINCUBATION): inactive; negative
mutagenic call (Test System: AMES SALMONELLA TYPHIMURIUM, Strain/Indicator: TA100, Metabolic Activation: RAT LIVER S-9, AROCLOR 1254 (10%), Method: PREINCUBATION): inactive; negative
mutagenic call (Test System: AMES SALMONELLA TYPHIMURIUM, Strain/Indicator: TA100, Metabolic Activation: RAT LIVER S-9, AROCLOR 1254 (30%), Method: PREINCUBATION): inactive; negative
mutagenic call (Test System: AMES SALMONELLA TYPHIMURIUM, Strain/Indicator: TA100, Metabolic Activation: RAT, LIVER, S-9, AROCLOR 1254, Method: STANDARD PLATE): inactive; negative
mutagenic call (Test System: AMES SALMONELLA TYPHIMURIUM, Strain/Indicator: TA100, Metabolic Activation: RAT, LIVER, S-9, Method: STANDARD PLATE): inactive; negative; toxicity at 100 ug/plate
mutagenic call (Test System: AMES SALMONELLA TYPHIMURIUM, Strain/Indicator: TA100, Metabolic Activation: S-9, Method: STANDARD PLATE): inactive; negative
mutagenic call (Test System: AMES SALMONELLA TYPHIMURIUM, Strain/Indicator: TA102, Metabolic Activation: NONE, Method: STANDARD PLATE): inactive; negative
mutagenic call (Test System: AMES SALMONELLA TYPHIMURIUM, Strain/Indicator: TA102, Metabolic Activation: S-9, Method: STANDARD PLATE): inactive; negative
mutagenic call (Test System: AMES SALMONELLA TYPHIMURIUM, Strain/Indicator: TA1535, Metabolic Activation: HAMSTER LIVER S-9, AROCLOR 1254 (30%), Method: PREINCUBATION): inactive; negative
mutagenic call (Test System: AMES SALMONELLA TYPHIMURIUM, Strain/Indicator: TA1535, Metabolic Activation: HAMSTER LIVER, S-9, AROCLOR 1254 (10%), Method: PREINCUBATION): inactive; negative
mutagenic call (Test System: AMES SALMONELLA TYPHIMURIUM, Strain/Indicator: TA1535, Metabolic Activation: NONE, Method: PREINCUBATION): inactive; negative
mutagenic call (Test System: AMES SALMONELLA TYPHIMURIUM, Strain/Indicator: TA1535, Metabolic Activation: RAT LIVER S-9, AROCLOR 1254 (10%), Method: PREINCUBATION): inactive; negative
mutagenic call (Test System: AMES SALMONELLA TYPHIMURIUM, Strain/Indicator: TA1535, Metabolic Activation: RAT LIVER S-9, AROCLOR 1254 (30%), Method: PREINCUBATION): inactive; negative
mutagenic call (Test System: AMES SALMONELLA TYPHIMURIUM, Strain/Indicator: TA1535, Metabolic Activation: RAT, LIVER, S-9, AROCLOR 1254, Method: STANDARD PLATE): inactive; negative
mutagenic call (Test System: AMES SALMONELLA TYPHIMURIUM, Strain/Indicator: TA1535, Metabolic Activation: RAT, LIVER, S-9, Method: STANDARD PLATE): inactive; negative; toxicity at 50 and 100 ug/plate
mutagenic call (Test System: AMES SALMONELLA TYPHIMURIUM, Strain/Indicator: TA1537, Metabolic Activation: RAT, LIVER, S-9, AROCLOR 1254, Method: STANDARD PLATE): inactive; negative
mutagenic call (Test System: AMES SALMONELLA TYPHIMURIUM, Strain/Indicator: TA1537, Metabolic Activation: RAT, LIVER, S-9, Method: STANDARD PLATE): inactive; negative
mutagenic call (Test System: AMES SALMONELLA TYPHIMURIUM, Strain/Indicator: TA1538, Metabolic Activation: NONE, Method: STANDARD PLATE): inactive; negative
mutagenic call (Test System: AMES SALMONELLA TYPHIMURIUM, Strain/Indicator: TA1538, Metabolic Activation: RAT, LIVER, S-9, AROCLOR 1254, Method: STANDARD PLATE): inactive; negative
mutagenic call (Test System: AMES SALMONELLA TYPHIMURIUM, Strain/Indicator: TA1538, Metabolic Activation: RAT, LIVER, S-9, Method: STANDARD PLATE): inactive; negative
mutagenic call (Test System: E. COLI, Strain/Indicator: WP2 UVRA, Metabolic Activation: HAMSTER, LIVER, S-9, AROCLOR 1254, Method: STANDARD PLATE): inactive; negative
mutagenic call (Test System: E. COLI, Strain/Indicator: WP2 UVRA, Metabolic Activation: HAMSTER, LIVER, S-9, Method: STANDARD PLATE): inactive; negative
mutagenic call (Test System: E. COLI, Strain/Indicator: WP2 UVRA, Metabolic Activation: MOUSE, LIVER, S-9, AROCLOR 1254, Method: STANDARD PLATE): inactive; negative
mutagenic call (Test System: E. COLI, Strain/Indicator: WP2 UVRA, Metabolic Activation: MOUSE, LIVER, S-9, Method: STANDARD PLATE): inactive; negative
mutagenic call (Test System: E. COLI, Strain/Indicator: WP2 UVRA, Metabolic Activation: NONE, Method: STANDARD PLATE): inactive; negative
mutagenic call (Test System: E. COLI, Strain/Indicator: WP2 UVRA, Metabolic Activation: RAT, LIVER, S-9, AROCLOR 1254, Method: STANDARD PLATE): inactive; negative
mutagenic call (Test System: E. COLI, Strain/Indicator: WP2 UVRA, Metabolic Activation: RAT, LIVER, S-9, Method: STANDARD PLATE): inactive; negative
mutagenic call (Test System: MOUSE LYMPHOMA, Strain/Indicator: L5178Y (TK+/+)/OUABAIN, Metabolic Activation: NONE, Method: SUSPENSION/PLATE): inactive; negative
mutagenic call (Test System: MOUSE LYMPHOMA, Strain/Indicator: L5178Y (TK+/+)/OUABAIN, Metabolic Activation: RAT LIVER S-9, AROCLOR 1254, Method: SUSPENSION/PLATE): active; positive
mutagenic call (Test System: MOUSE LYMPHOMA, Strain/Indicator: L5178Y (TK+/-)/TRIFLUROTHYMIDINE, Metabolic Activation: NONE, Method: SUSPENSION/PLATE): inactive; negative
mutagenic call (Test System: MOUSE LYMPHOMA, Strain/Indicator: L5178Y (TK+/-)/TRIFLUROTHYMIDINE, Metabolic Activation: RAT LIVER S-9, AROCLOR 1254, Method: SUSPENSION/PLATE): active; positive
mutagenic call (Test System: MOUSE LYMPHOMA, Strain/Indicator: L5178Y (TK+/TK-), Metabolic Activation: NONE, Method: MICROWELL): inactive; negative
mutagenic call (Test System: MOUSE LYMPHOMA, Strain/Indicator: L5178Y (TK+/TK-), Metabolic Activation: S-9, Method: MICROWELL): active; positive
mutagenic call (Test System: UDS RAT HEPATOCYTES, Strain/Indicator: THY INCORP (18-20 HR), Metabolic Activation: NONE, Method: LIQUID SCINTILLATION COUNTING): inactive; negative
mutagenic call (Test System: UDS RAT HEPATOCYTES, Strain/Indicator: THY INCORP, Metabolic Activation: NONE, Method: LIQUID SCINTILLATION COUNTING): inactive; negative
